# According to patent US9303016B2, “Derivatives of aza adamantane and uses thereof” (CONNEXIOS LIFE SCIENCES PVT. LTD., priority 2011, dated 2016):
# Target: T1, human full length HSD11β1 (Homo sapiens, UniProt P28845)
# T1 construct: transient expression of human full length HSD11β1 expression vector; host or cells: CHO cells, transient transfection
# Assay: In Vitro HSD11β1 Inhibition Assay
# Format: cell-based
# Settings: CHO cells transiently expressing human HSD11β1; 200 nM cortisone+500 uM NADPH overnight; cortisone to cortisol by LC/MS-MS; read-out: 11βHSD1 (IC50)
# Method in brief: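 Whole-cell assay in CHO cells transiently transfected with full-length human HSD11β1, re-seeded 24 h after transfection. Cells incubated overnight with 200 nM cortisone plus 500 uM NADPH, with or without inhibitor. Cortisone-to-cortisol conversion measured by LC/MS-MS; IC50 (nM) from an 8-point log concentration-inhibition curve.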
# T1 sequence (P28845 whole entry): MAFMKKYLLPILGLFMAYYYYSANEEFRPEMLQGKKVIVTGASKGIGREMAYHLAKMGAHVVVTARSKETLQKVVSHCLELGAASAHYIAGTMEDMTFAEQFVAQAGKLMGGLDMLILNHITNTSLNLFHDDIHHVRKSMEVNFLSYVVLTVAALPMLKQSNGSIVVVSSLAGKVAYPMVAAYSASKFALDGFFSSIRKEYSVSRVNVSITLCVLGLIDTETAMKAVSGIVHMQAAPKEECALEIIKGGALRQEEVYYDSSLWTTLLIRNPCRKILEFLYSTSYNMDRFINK
row,SMILES,IC50 [nM]
1,"CC(C)Oc1cccc2[nH]cc(C(C)CC(=O)N3C4CC5CC(C4)CC3C5)c12 (centres unmarked) [Compound 181, 1-(2-azatricyclo[3.3.1.1^3,7]dec-2-yl)-3-[4-(propan-2-yloxy)-1H-indol-3-yl]butan-1-one]",> 250
2,"CC(C)Oc1cccc2[nH]cc(C(C)CC(=O)N3C4CC5CC3CC(F)(C5)C4)c12 (centres unmarked) [Compound 182, 1-(5-fluoro-2-azatricyclo[3.3.1.1^3,7]dec-2-yl)-3-[4-(propan-2-yloxy)-1H-indol-3-yl]butan-1-one]",150 to 200
3,"CC(CC(=O)N1C2CC3CC(C2)CC1C3)c1c[nH]c2cccc(N3CCC(C(=O)O)CC3)c12 (centres unmarked) [Compound 183, 1-{3-[4-(2-azatricyclo[3.3.1.1^3,7]dec-2-yl)-4-oxobutan-2-yl]-1H-indol-4-yl}piperidine-4-carboxylic acid]",> 250
4,"CC(CC(=O)N1C2CC3CC1CC(C(C)C(=O)O)(C3)C2)c1c[nH]c2cccc(Cl)c12 (centres unmarked) [Compound 186, 2-{2-[3-(4-chloro-1H-indol-3-yl)butanoyl]-2-azatricyclo[3.3.1.1^3,7]dec-5-yl}propanoic acid]",> 250
5,"CC(CC(=O)N1C2CC3CC1CC(O)(C3)C2)c1c[nH]c2cccc(-c3ccsc3)c12 (centres unmarked) [Compound 187, 1-(5-hydroxy-2-azatricyclo[3.3.1.1^3,7]dec-2-yl)-3-[4-(thiophen-3-yl)-1H-indol-3-yl]butan-1-one]",100 to 150
6,"CC(CC(=O)N1C2CC3CC1CC(O)(C3)C2)c1nc2cc(Cl)ccc2s1 (centres unmarked) [Compound 190, 3-(5-chloro-1,3-benzothiazol-2-yl)-1-(5-hydroxy-2-azatricyclo[3.3.1.1^3,7]dec-2-yl)butan-1-one]",150 to 200
7,"CC(CC(=O)N1C2CC3CC1CC(C#N)(C3)C2)c1nc2cc(Cl)ccc2s1 (centres unmarked) [Compound 191, 2-[3-(5-chloro-1,3-benzothiazol-2-yl)butanoyl]-2-azatricyclo[3.3.1.1^3,7]decane-5-carbonitrile]",> 250
8,"CC(CC(=O)N1C2CC3CC1CC(O)(C3)C2)c1nc2ccc(Cl)cc2s1 (centres unmarked) [Compound 192, 3-(6-chloro-1,3-benzothiazol-2-yl)-1-(5-hydroxy-2-azatricyclo[3.3.1.1^3,7]dec-2-yl)butan-1-one]",< 100
9,"CC(CC(=O)N1C2CC3CC1CC(C(N)=O)(C3)C2)c1nc2ccc(Cl)cc2s1 (centres unmarked) [Compound 196, 2-[3-(6-chloro-1,3-benzothiazol-2-yl)butanoyl]-2-azatricyclo[3.3.1.1^3,7]decane-5-carboxamide]",> 250
10,"CC(CC(=O)N1C2CC3CC1CC(O)(C3)C2)c1c[nH]c2ncc(Cl)c(Cl)c12 (centres unmarked) [Compound 197, 3-(4,5-dichloro-1H-pyrrolo[2,3-b]pyridin-3-yl)-1-(5-hydroxy-2-azatricyclo[3.3.1.1^3,7]dec-2-yl)butan-1-one]",< 100
11,"CC(CC(=O)N1C2CC3CC1CC(O)(C3)C2)c1c[nH]c2ncc(Cl)c(C3CC3)c12 (centres unmarked) [Compound 198, 3-(5-chloro-4-cyclopropyl-1H-pyrrolo[2,3-b]pyridin-3-yl)-1-(5-hydroxy-2-azatricyclo[3.3.1.1^3,7]dec-2-yl)butan-1-one]",< 100
12,"CC(CC(=O)N1C2CC3CC1CC(O)(C3)C2)c1c[nH]c2ncc(C3CC3)c(C3CC3)c12 (centres unmarked) [Compound 201, 3-(4,5-dicyclopropyl-1H-pyrrolo[2,3-b]pyridin-3-yl)-1-(5-hydroxy-2-azatricyclo[3.3.1.1^3,7]dec-2-yl)butan-1-one]",> 250
13,"CC(CC(=O)N1C2CC3CC1CC(O)(C3)C2)c1nc2ccc(Cl)cc2[nH]1 (centres unmarked) [Compound 202, 3-(6-chloro-1H-benzimidazol-2-yl)-1-(5-hydroxy-2-azatricyclo[3.3.1.1^3,7]dec-2-yl)butan-1-one]",> 250
14,"Cc1cccc2c1c(C(C)CC(=O)N1C3CC4CC1CC(O)(C4)C3)cn2C1CC1 (centres unmarked) [Compound 205, 3-(1-cyclopropyl-4-methyl-1H-indol-3-yl)-1-(5-hydroxy-2-azatricyclo[3.3.1.1^3,7]dec-2-yl)butan-1-one]",> 250
15,"Cc1cccc2c1c(C(C)CC(=O)N1C3CC4CC1CC(O)(C4)C3)cn2C (centres unmarked) [Compound 206, 3-(1,4-dimethyl-1H-indol-3-yl)-1-(5-hydroxy-2-azatricyclo[3.3.1.1^3,7]dec-2-yl)butan-1-one]",> 250
16,"CC(CC(=O)N1C2CC3CC1CC(O)(C3)C2)c1cn(C)c2cccc(Cl)c12 (centres unmarked) [Compound 207, 3-(4-chloro-1-methyl-1H-indol-3-yl)-1-(5-hydroxy-2-azatricyclo[3.3.1.1^3,7]dec-2-yl)butan-1-one]",100 to 150
17,"CC(CC(=O)N1C2CC3CC1CC(O)(C3)C2)c1c[nH]c2ccc(-c3ccco3)c(Cl)c12 (centres unmarked) [Compound 208, 3-[4-chloro-5-(furan-2-yl)-1H-indol-3-yl]-1-(5-hydroxy-2-azatricyclo[3.3.1.1^3,7]dec-2-yl)butan-1-one]",100 to 150
18,"COc1c(C)ccc2[nH]cc(C(C)CC(=O)N3C4CC5CC3CC(O)(C5)C4)c12 (centres unmarked) [Compound 209, 1-(5-hydroxy-2-azatricyclo[3.3.1.1^3,7]dec-2-yl)-3-(4-methoxy-5-methyl-1H-indol-3-yl)butan-1-one]",200 to 250
19,"Cc1ccc2c(c1Cl)C(C(C)CC(=O)N1C3CC4CC1CC(O)(C4)C3)C(=O)N2 (centres unmarked) [Compound 211, 4-chloro-3-[4-(5-hydroxy-2-azatricyclo[3.3.1.1^3,7]dec-2-yl)-4-oxobutan-2-yl]-5-methyl-1,3-dihydro-2H-indol-2-one]",150 to 200
20,"CC(CC(=O)N1C2CC3(O)CC1CC(F)(C2)C3)c1c[nH]c2cccc(C3CC3)c12 (centres unmarked) [Compound 213, 3-(4-cyclopropyl-1H-indol-3-yl)-1-(5-fluoro-7-hydroxy-2-azatricyclo[3.3.1.1^3,7]dec-2-yl)butan-1-one]",100 to 150
21,"CC(CC(=O)N1C2CC3CC1CC(CC(=O)O)(C3)C2)c1c[nH]c2cccc(-c3ccc(F)o3)c12 (centres unmarked) [Compound 215, 2-(2-(3-(4-(5-fluorofuran-2-yl)-1H-indol-3-yl)butanoyl)-2-azaadamantan-5-yl)acetic acid]",> 250
22,"Cc1cccc2c1c(C(C)CC(=O)N1C3CC4CC1CC(O)(C4)C3)cn2S(=O)(=O)c1cccc2cccnc12 (centres unmarked) [Compound 216, 1-(5-hydroxy-2-azaadamantan-2-yl)-3-(4-methyl-1-(quinolin-8-ylsulfonyl)-1H-indol-3-yl)butan-1-one]",> 250
23,"Cc1ccc2[nH]cc(C(C)CC(=O)N3C4CC5(C)CC3CC(O)(C4)C5)c2c1Cl (centres unmarked) [Compound 219, 3-(4-chloro-5-methyl-1H-indol-3-yl)-1-(5-hydroxy-7-methyl-2-azaadamantan-2-yl)butan-1-one]",< 100
24,"CC(CC(=O)N1C2CC3CC1CC(O)(C3)C2)c1c(C#N)[nH]c2cccc(C3CC3)c12 (centres unmarked) [Compound 220, 4-cyclopropyl-3-(4-(5-hydroxy-2-azaadamantan-2-yl)-4-oxobutan-2-yl)-1H-indole-2-carbonitrile]",> 250
25,"Cc1ccc2[nH]cc(C(C)CC(=O)N3C4CC5CC3CC(C#N)(C5)C4)c2c1C (centres unmarked) [Compound 221, 2-(3-(4,5-dimethyl-1H-indol-3-yl)butanoyl)-2-azaadamantane-5-carbonitrile]",> 250
26,"CC(CC(=O)N1C2CC3CC1CC(C(=O)O)(C3)C2)c1c[nH]c2cccc(-c3ccco3)c12 (centres unmarked) [Compound 222, 2-(3-(4-(furan-2-yl)-1H-indol-3-yl)butanoyl)-2-azaadamantane-5-carboxylic acid]",> 250
